Experimental data as given in patent publication US20250179061A1 (SIRONAX LTD., priority 2022, published 2025).

system: HT-29 cells; assay: HT-29 necroptosis cell viability assay (TNF-α/SMAC mimetic/zVAD-FMK, CellTiter-Glo); format: cell-based; settings: Homo sapiens, HT-29, HT-29 necroptosis cell viability, IC50 class symbols; read-out: Activity
How it was run: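 Necroptosis was triggered by TNF-α (10 ng/ml), SMAC mimetic (6 μM) and zVAD-FMK (10 μM) in serum-free medium during 20 h compound exposure (10 concentrations, threefold steps) of HT-29 cells. IC50 from duplicate dose-responses uses CellTiter-Glo ATP luminescence as viability read-out.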

Q: `O=c1n(Cc2c(F)cccc2F)cnn1-c1ccc(Oc2ccnc(N3CC(OC(F)F)C3)c2)cc1` [Example 287, 4-(2,6-difluorobenzyl)-2-(4-((2-(3-(difluoromethoxy)azetidin-1-yl)pyridin-4-yl)oxy)phenyl)-2,4-dihydro-3H-1,2,4-triazol-3-one] was tested. Which IC50 did it give?
A: < 100 nM

Q: `O=c1n(Cc2c(F)ccc(F)c2F)cnn1-c1ccc(Oc2ccnc(N3CC4(CCOCC4)C3)c2)cc1` [Example 288, 2-(4-((2-(7-oxa-2-azaspiro[3.5]nonan-2-yl)pyridin-4-yl)oxy)phenyl)-4-(2,3,6-trifluorobenzyl)-2,4-dihydro-3H-1,2,4-triazol-3-one] was tested. Which IC50 did it give?
A: 100 to 1000 nM

Q: How did the IC50 turn out when `C[C@H]1C[C@@H](O)CN1c1cc(Oc2ccc(-n3ncn(Cc4c(F)cccc4F)c3=O)cc2)ccn1` [Example 289, 4-(2,6-difluorobenzyl)-2-(4-((2-((2S,4R)-4-hydroxy-2-methylpyrrolidin-1-yl)pyridin-4-yl)oxy)phenyl)-2,4-dihydro-3H-1,2,4-triazol-3-one] was run?
A: < 100 nM

Q: For `Cc1cnc(Cl)cc1Oc1ccc(-n2ncn(Cc3c(F)cccc3F)c2=O)cc1Cl` [Example 290, 2-(3-chloro-4-((2-chloro-5-methylpyridin-4-yl)oxy)phenyl)-4-(2,6-difluorobenzyl)-2,4-dihydro-3H-1,2,4-triazol-3-one], which IC50 is on record?
A: < 100 nM

Q: With `C[C@H]1[C@@H](NC(=O)OC(C)(C)C)CN1c1cc(Oc2ccc(-n3ncn(Cc4c(F)cccc4F)c3=O)cc2F)c(F)cn1` [Example 291, tert-butyl ((2S,3S)-1-(4-(4-(4-(2,6-difluorobenzyl)-5-oxo-4,5-dihydro-1H-1,2,4-triazol-1-yl)-2-fluorophenoxy)-5-fluoropyridin-2-yl)-2-methylazetidin-3-yl)carbamate] as the compound, how does the IC50 read?
A: < 100 nM

Q: For `CC1(C#N)CN(c2cc(Oc3ccc(-n4nc5n(c4=O)C(c4ccccc4)CC5)cc3F)c(F)cn2)C1` (stereo not drawn) [Example 292, 1-(5-fluoro-4-(2-fluoro-4-(3-oxo-5-phenyl-6,7-dihydro-3H-pyrrolo[2,1-c][1,2,4]triazol-2(5H)-yl)phenoxy)pyridin-2-yl)-3-methylazetidine-3-carbonitrile], which IC50 is on record?
A: < 100 nM

Q: For `CC(C)(O)C1CCN1c1cc(Oc2ccc(-n3ncn(Cc4c(F)cccc4F)c3=O)cc2F)c(F)cn1` (stereo not drawn) [Example 293, 4-(2,6-difluorobenzyl)-2-(3-fluoro-4-((5-fluoro-2-(2-(2-hydroxypropan-2-yl)azetidin-1-yl)pyridin-4-yl)oxy)phenyl)-2,4-dihydro-3H-1,2,4-triazol-3-one], which IC50 is on record?
A: < 100 nM

Q: How did the IC50 turn out when `Cc1cnc(N2CC(C)(C#N)C2)cc1Oc1ccc(-n2ncn(Cc3c(F)cccc3F)c2=O)cc1F` [Example 294, 1-(4-(4-(4-(2,6-difluorobenzyl)-5-oxo-4,5-dihydro-1H-1,2,4-triazol-1-yl)-2-fluorophenoxy)-5-methylpyridin-2-yl)-3-methylazetidine-3-carbonitrile] was run?
A: < 100 nM

Q: With `Cc1nc(N2CCOCC2)sc1Oc1ccc(-n2ncn(Cc3c(F)cccc3F)c2=O)cc1F` [Example 295, 4-(2,6-difluorobenzyl)-2-(3-fluoro-4-((4-methyl-2-morpholinothiazol-5-yl)oxy)phenyl)-2,4-dihydro-3H-1,2,4-triazol-3-one] as the compound, how does the IC50 read?
A: < 100 nM

Q: With `Cc1nc(N2CCN(C)CC2)sc1Oc1ccc(-n2ncn(Cc3c(F)cccc3F)c2=O)cc1F` [Example 296, 4-(2,6-difluorobenzyl)-2-(3-fluoro-4-((4-methyl-2-(4-methylpiperazin-1-yl)thiazol-5-yl)oxy)phenyl)-2,4-dihydro-3H-1,2,4-triazol-3-one] as the compound, how does the IC50 read?
A: < 100 nM

Q: How did the IC50 turn out when `C[C@H]1CCCN1c1cc(Oc2ccc(-n3ncn(Cc4c(F)cccc4F)c3=O)cc2F)c(F)cn1` [Example 297, (S)-4-(2,6-difluorobenzyl)-2-(3-fluoro-4-((5-fluoro-2-(2-methylpyrrolidin-1-yl)pyridin-4-yl)oxy)phenyl)-2,4-dihydro-3H-1,2,4-triazol-3-one] was run?
A: < 100 nM

Q: Which IC50 does the source give for `Cc1nc(NC2=NC(C)(C)CO2)sc1Oc1ccc(-n2ncn(Cc3c(F)cccc3F)c2=O)cc1Cl` [Example 298, 2-(3-chloro-4-((2-((4,4-dimethyl-4,5-dihydrooxazol-2-yl)amino)-4-methylthiazol-5-yl)oxy)phenyl)-4-(2,6-difluorobenzyl)-2,4-dihydro-3H-1,2,4-triazol-3-one] here?
A: < 100 nM

Q: For `Cc1nc(N2CC(C)(O)C2)sc1Oc1ccc(-n2ncn(Cc3c(F)cccc3F)c2=O)cc1F` [Example 299, 4-(2,6-difluorobenzyl)-2-(3-fluoro-4-((2-(3-hydroxy-3-methylazetidin-1-yl)-4-methylthiazol-5-yl)oxy)phenyl)-2,4-dihydro-3H-1,2,4-triazol-3-one], which IC50 is on record?
A: < 100 nM

Q: With `O=c1n(Cc2c(F)cccc2F)cnn1-c1ccc(Oc2ccnc(N3CC4(CCO4)C3)c2)cc1` [Example 300, 4-[(2,6-difluorophenyl)methyl]-2-[4-[[2-(1-oxa-6-azaspiro[3.3]heptan-6-yl)-4-pyridyl]oxy]phenyl]-1,2,4-triazol-3-one] as the compound, how does the IC50 read?
A: 100 to 1000 nM

Q: How did the IC50 turn out when `CCOC1CN(c2cc(Oc3ccc(-n4nc5n(c4=O)C(c4ccccc4)CC5)cc3)ccn2)C1` (stereo not drawn) [Example 301, 2-[4-[[2-(3-ethoxyazetidin-1-yl)-4-pyridyl]oxy]phenyl]-5-phenyl-6,7-dihydro-5H-pyrrolo[2,1-c][1,2,4]triazol-3-one] was run?
A: < 100 nM

Q: How did the IC50 turn out when `COC1(C#N)CN(c2cc(Oc3ccc(-n4ncn(Cc5c(F)cccc5F)c4=O)cc3)c(F)cn2)C1` [Example 302, 1-(4-(4-(4-(2,6-difluorobenzyl)-5-oxo-4,5-dihydro-1H-1,2,4-triazol-1-yl)phenoxy)-5-fluoropyridin-2-yl)-3-methoxyazetidine-3-carbonitrile] was run?
A: < 100 nM

Q: For `CC(C)(C)OC1CN(c2nccc(Oc3ccc(-n4ncn(Cc5c(F)cccc5F)c4=O)cc3)c2F)C1` [Example 303, 2-(4-((2-(3-(tert-butoxy)azetidin-1-yl)-3-fluoropyridin-4-yl)oxy)phenyl)-4-(2,6-difluorobenzyl)-2,4-dihydro-3H-1,2,4-triazol-3-one], which IC50 is on record?
A: < 100 nM

Q: `CCOC1CN(c2nccc(Oc3ccc(-n4nc(C)n(Cc5ccccc5)c4=O)cc3)c2F)C1` [Example 304, 4-benzyl-2-[4-[[2-(3-ethoxyazetidin-1-yl)-3-fluoro-4-pyridyl]oxy]phenyl]-5-methyl-1,2,4-triazol-3-one] was tested. Which IC50 did it give?
A: 100 to 1000 nM

Q: For `CCOC1CN(c2nccc(Cl)c2Oc2ccc(-n3nc(C)n(Cc4ccccc4)c3=O)cc2)C1` [Example 305, 4-benzyl-2-[4-[[4-chloro-2-(3-ethoxyazetidin-1-yl)-3-pyridyl]oxy]phenyl]-5-methyl-1,2,4-triazol-3-one], which IC50 is on record?
A: 100 to 1000 nM

Q: How did the IC50 turn out when `O=c1n(Cc2c(F)cccc2F)cnn1-c1ccc(Oc2ccnc(NC34CC(C3)C4)c2)cc1` [Example 306, 2-[4-[[2-(1-bicyclo[1.1.1]pentanylamino)-4-pyridyl]oxy]phenyl]-4-[(2,6-difluorophenyl)methyl]-1,2,4-triazol-3-one] was run?
A: 100 to 1000 nM

Q: How did the IC50 turn out when `O=c1n(Cc2c(F)cccc2F)cnn1-c1ccc(Oc2c(N3CC4(CCOCC4)C3)ccnc2Cl)cc1` [Example 307, 2-(4-((2-chloro-4-(7-oxa-2-azaspiro[3.5]nonan-2-yl)pyridin-3-yl)oxy)phenyl)-4-(2,6-difluorobenzyl)-2,4-dihydro-3H-1,2,4-triazol-3-one] was run?
A: 100 to 1000 nM
